The values that follow come from ChEMBL document CHEMBL1125983, “Synthesis and evaluation of new protein-tyrosine kinase inhibitors. Part 2. Phenylhydrazones” (Bioorg Med Chem Lett, 1991).

The structures appear in SMILES notation.

Sequence of Tyrosine-protein kinase Lck (P06239 whole entry): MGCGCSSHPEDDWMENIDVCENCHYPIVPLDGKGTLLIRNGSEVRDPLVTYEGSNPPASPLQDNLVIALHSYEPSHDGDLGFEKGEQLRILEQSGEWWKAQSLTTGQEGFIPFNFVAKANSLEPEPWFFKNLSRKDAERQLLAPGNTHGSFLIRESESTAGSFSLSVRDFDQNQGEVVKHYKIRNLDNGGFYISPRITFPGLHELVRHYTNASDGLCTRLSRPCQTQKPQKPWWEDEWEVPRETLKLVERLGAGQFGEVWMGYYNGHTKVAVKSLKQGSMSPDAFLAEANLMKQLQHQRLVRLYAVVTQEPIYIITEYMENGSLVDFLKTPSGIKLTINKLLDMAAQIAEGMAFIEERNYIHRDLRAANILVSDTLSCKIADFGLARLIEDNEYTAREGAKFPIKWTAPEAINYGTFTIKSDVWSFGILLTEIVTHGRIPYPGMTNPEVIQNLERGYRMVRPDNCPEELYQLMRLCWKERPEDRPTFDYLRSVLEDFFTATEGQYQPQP

The assay addresses Tyrosine-protein kinase Lck (Homo sapiens, UniProt P06239). The assay can be described thus: Inhibitory concentration against phosphorylation of angiotensin I catalyzed by protein-tyrosine kinase p56lck.
In general, IC50 refers to the point on the concentration scale where inhibition reaches its midpoint. Higher therefore signals weaker potency. Take `COc1ccc(N/N=C/c2cccc(O)c2O)cc1`: the IC50 was determined as 310 µM.
The value for `C(=N\Nc1ccccc1)/c1ccncc1` was over 4060 µM.
Under `O=[N+]([O-])c1ccc(N/N=C/c2ccc(O)c(O)c2O)c([N+](=O)[O-])c1` stands 144 µM; under `COc1ccc(/C=N/Nc2ccc(Br)cc2)cc1O`, over 2490 µM; under `COc1cc(/C=N/Nc2ccccc2)ccc1O`, 2590 µM.
As to `Oc1ccc(/C=N/Nc2ccccn2)cc1O`, the IC50 came out at 227 µM.
Under `Oc1ccc(/C=N/Nc2ccc(Br)cc2)c(O)c1O` stands 1040 µM.
The value for `O=[N+]([O-])c1cccc(/C=N/Nc2ccccc2)c1` was over 3320 µM; that for `O=[N+]([O-])c1ccc(N/N=C/c2ccc(O)cc2O)c([N+](=O)[O-])c1` was 1000 µM; that for `Oc1ccc(/C=N/Nc2ccccn2)c(O)c1` was 1010 µM.
Turning to `C(=N\Nc1ccccc1)/c1cccnc1`, it took 1320 µM to reach half-maximal inhibition (IC50).
Compound `Oc1ccc(O)c(/C=N/Nc2ccccc2)c1` yielded an IC50 of over 3500 µM.
Under `COc1ccc(N/N=C/c2cc(O)ccc2O)cc1` stands 310 µM; under `Brc1ccc(N/N=C/c2ccncc2)cc1`, over 2900 µM; under `Brc1ccc(N/N=C/c2ccccn2)cc1`, over 2900 µM.
The value for `Oc1cccc(/C=N/Nc2ccccc2)c1O` was 1260 µM; that for `Oc1ccc(/C=N/Nc2ccccc2)cc1O` was 70 µM; that for `Oc1cc(/C=N/Nc2ccccn2)cc(O)c1O` was 179 µM.
Under `Oc1ccc(/C=N/Nc2ccc(Br)cc2)c(O)c1` stands 521 µM.
For `Oc1ccc(Br)cc1/C=N/Nc1ccccc1`, the IC50 was over 2600 µM.
The value for `C(=N\Nc1ccccn1)/c1cccnc1` was 400 µM.
Under `Brc1ccc(N/N=C/c2cccnc2)cc1` stands over 2900 µM; under `Oc1ccc(Br)cc1/C=N/Nc1ccc(Br)cc1`, over 2160 µM.
The value for `COc1ccc(/C=N/Nc2ccccc2)cc1O` was 2110 µM.
As for `COc1ccc(N/N=C/c2ccc(O)c(O)c2)cc1`, the IC50 was 743 µM.
The value for `Oc1ccc(/C=N/Nc2ccccn2)c(O)c1O` was 522 µM; that for `O=[N+]([O-])c1ccc(/C=N/Nc2ccccc2)cc1` was over 3320 µM.
For the compound `C(=N\Nc1ccccc1)/c1ccccn1`, the IC50 is over 4060 µM.
Under `Oc1ccc(/C=N/Nc2ccccc2)c(O)c1O` stands 1570 µM; under `O=[N+]([O-])c1ccc(N/N=C/c2cccc(O)c2O)c([N+](=O)[O-])c1`, over 2510 µM; under `Oc1ccc(/C=N/Nc2ccccc2)c(O)c1`, 350 µM.
The value for `Oc1ccc(/C=N/Nc2ccc(Br)cc2)cc1O` was 599 µM; that for `O=[N+]([O-])c1ccc(N/N=C/c2ccc(O)c(O)c2)c([N+](=O)[O-])c1` was 352 µM.
